The supplement of paper PMC10307832

Assays:
Test in all cases: relative viability (nuclei count vs DMSO), 5 days (fraction); higher = more cells survive
[1] = tested on: NCI-H1355
Procedure, shortened: (§1)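 Relative viability was taken as the ratio of nuclei in treated wells to nuclei in vehicle wells. Lung cancer cell lines in 1536-well plates received compounds by pin tool one day after seeding, either one drug alone or a fixed anchor-drug dose plus five library-drug doses (not always all listed) in √10 steps. Nuclei were counted on 4× images after 5 days of treatment, and values are medians of duplicate plates.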

[2] = tested on: NCI-H838
Procedure, shortened: as §1

[3] = tested on: HARA
Procedure, shortened: as §1

[4] = tested on: NCI-H2009
Procedure, shortened: as §1

[5] = tested on: SK-MES-1
Procedure, shortened: as §1

[6] = tested on: PC-14
Procedure, shortened: as §1

[7] = tested on: COR-L 105
Procedure, shortened: as §1

[8] = tested on: NCI-H1993
Procedure, shortened: as §1

[9] = tested on: EKVX
Procedure, shortened: as §1

[10] = tested on: NCI-H2170
Procedure, shortened: as §1

[11] = tested on: NCI-H1755
Procedure, shortened: as §1

[12] = tested on: NCI-H2347
Procedure, shortened: as §1

[13] = tested on: COR-L23
Procedure, shortened: as §1

[14] = tested on: NCI-H1734
Procedure, shortened: as §1

[15] = tested on: UMC-11
Procedure, shortened: as §1

[16] = tested on: NCI-H647
Procedure, shortened: as §1

[17] = tested on: NCI-H1395
Procedure, shortened: as §1

[18] = tested on: HOP-62
Procedure, shortened: as §1

[19] = tested on: NCI-H2228
Procedure, shortened: as §1

[20] = tested on: HCC-15
Procedure, shortened: as §1

[21] = tested on: NCI-H358
Procedure, shortened: as §1

[22] = tested on: NCI-H1793
Procedure, shortened: as §1

## O=C(O)c1ccc(-c2c[nH]c3ncc(-c4ccccc4)cc23)cc1C1CCCC1 + CS(=O)(=O)N1CCN(Cc2cc3nc(-c4cccc5[nH]ncc45)nc(N4CCOCC4)c3s2)CC1 [Pictilisib] (partner 1 µM)
[1]; first compound 0.04 µM
  relative viability: 0.481
[1]; first compound 0.1265 µM
  relative viability: 0.514
[1]; first compound 0.4 µM
  relative viability: 0.4
[1]; first compound 1.265 µM
  relative viability: 0.35
[2]; first compound 0.04 µM
  relative viability: 0.423
[2]; first compound 0.1265 µM
  relative viability: 0.57
[2]; first compound 0.4 µM
  relative viability: 0.506
[2]; first compound 1.265 µM
  relative viability: 0.447
[3]; first compound 0.04 µM
  relative viability: 0.31
[3]; first compound 0.1265 µM
  relative viability: 0.604
[3]; first compound 0.4 µM
  relative viability: 0.449
[3]; first compound 1.265 µM
  relative viability: 0.545
[4]; first compound 0.04 µM
  relative viability: 0.793
[4]; first compound 0.1265 µM
  relative viability: 0.836
[4]; first compound 0.4 µM
  relative viability: 0.788
[4]; first compound 1.265 µM
  relative viability: 0.586
[5]; first compound 0.04 µM
  relative viability: 0.326
[5]; first compound 0.1265 µM
  relative viability: 0.399
[5]; first compound 0.4 µM
  relative viability: 0.283
[5]; first compound 1.265 µM
  relative viability: 0.298
[6]; first compound 0.04 µM
  relative viability: 0.765
[6]; first compound 0.1265 µM
  relative viability: 0.947
[6]; first compound 0.4 µM
  relative viability: 0.713
[6]; first compound 1.265 µM
  relative viability: 0.801
[7]; first compound 0.04 µM
  relative viability: 0.435
[7]; first compound 0.1265 µM
  relative viability: 0.429
[7]; first compound 0.4 µM
  relative viability: 0.497
[7]; first compound 1.265 µM
  relative viability: 0.388
[8]; first compound 0.04 µM
  relative viability: 0.823
[8]; first compound 0.4 µM
  relative viability: 0.742
[8]; first compound 1.265 µM
  relative viability: 0.789
[9]; first compound 0.04 µM
  relative viability: 0.462
[9]; first compound 0.1265 µM
  relative viability: 0.524
[9]; first compound 0.4 µM
  relative viability: 0.468
[9]; first compound 1.265 µM
  relative viability: 0.374
[10]; first compound 0.04 µM
  relative viability: 0.386
[10]; first compound 0.1265 µM
  relative viability: 0.326
[10]; first compound 0.4 µM
  relative viability: 0.294
[10]; first compound 1.265 µM
  relative viability: 0.211
[11]; first compound 0.04 µM
  relative viability: 0.381
[11]; first compound 0.1265 µM
  relative viability: 0.603
[11]; first compound 0.4 µM
  relative viability: 0.45
[11]; first compound 1.265 µM
  relative viability: 0.442
[12]; first compound 0.04 µM
  relative viability: 0.622
[12]; first compound 0.1265 µM
  relative viability: 0.789
[12]; first compound 0.4 µM
  relative viability: 0.621
[12]; first compound 1.265 µM
  relative viability: 0.75
[13]; first compound 0.04 µM
  relative viability: 0.775
[13]; first compound 0.1265 µM
  relative viability: 0.9
[13]; first compound 0.4 µM
  relative viability: 0.798
[13]; first compound 1.265 µM
  relative viability: 0.425
[14]; first compound 0.04 µM
  relative viability: 0.429
[14]; first compound 0.1265 µM
  relative viability: 0.556
[14]; first compound 0.4 µM
  relative viability: 0.445
[14]; first compound 1.265 µM
  relative viability: 0.419
[15]; first compound 0.04 µM
  relative viability: 0.827
[15]; first compound 0.1265 µM
  relative viability: 0.937
[15]; first compound 0.4 µM
  relative viability: 0.853
[15]; first compound 1.265 µM
  relative viability: 0.775
[16]; first compound 0.04 µM
  relative viability: 0.418
[16]; first compound 0.1265 µM
  relative viability: 0.38
[16]; first compound 0.4 µM
  relative viability: 0.478
[16]; first compound 1.265 µM
  relative viability: 0.344
[17]; first compound 0.04 µM
  relative viability: 0.769
[17]; first compound 0.1265 µM
  relative viability: 0.691
[17]; first compound 0.4 µM
  relative viability: 0.625
[17]; first compound 1.265 µM
  relative viability: 0.555
[18]; first compound 0.04 µM
  relative viability: 1.05
[18]; first compound 0.1265 µM
  relative viability: 0.884
[18]; first compound 0.4 µM
  relative viability: 0.686
[18]; first compound 1.265 µM
  relative viability: 0.66
[19]; first compound 0.04 µM
  relative viability: 0.58
[19]; first compound 0.1265 µM
  relative viability: 0.549
[19]; first compound 0.4 µM
  relative viability: 0.26
[19]; first compound 1.265 µM
  relative viability: 0.274
[20]; first compound 0.04 µM
  relative viability: 0.736
[20]; first compound 0.1265 µM
  relative viability: 0.839
[20]; first compound 0.4 µM
  relative viability: 0.755
[20]; first compound 1.265 µM
  relative viability: 0.514
[21]; first compound 0.04 µM
  relative viability: 0.39
[21]; first compound 0.1265 µM
  relative viability: 0.364
[21]; first compound 0.4 µM
  relative viability: 0.371
[21]; first compound 1.265 µM
  relative viability: 0.255
[22]; first compound 0.04 µM
  relative viability: 0.387
[22]; first compound 0.1265 µM
  relative viability: 0.43
[22]; first compound 0.4 µM
  relative viability: 0.308
[22]; first compound 1.265 µM
  relative viability: 0.336
